Results published in publication PMC4117522, “Proteasome Inhibitors Alter Levels of Intracellular Peptides in HEK293T and SH-SY5Y Cells” (PLoS ONE, 2014).
“And” between values parts separate entries of the source, which are not always exact repeats. Equal entries are not always repeated. Residues, ends and D or L forms follow the SMILES beside them. *: point of attachment. Cbz = O=C(OCc1ccccc1)*

Test system: HEK293T cells
Assay: Quantitative peptidomics (TMAB isotopic labels, LC-MS/MS) of inhibitor-treated HEK293T cells
Format: cell-based, human
Description: HEK293T and SH-SY5Y cells were grown to 80–90% confluence in DMEM and RPMI supplemented with 10% fetal bovine serum and penicillin/streptomycin. A single plate of cells (150 mm×25 mm) was used for each group. At the start of the experiment, media were removed from the plates and cells were washed with DPBS (138 mM NaCl, 8.06 mM Na2HPO4, 2.67 mM KCl, 1.47 mM KH2PO4, 0.9 mM CaCl2 and 0.49 mM MgCl2). This was followed by addition of serum-free media containing the proteasome or aminopeptidase inhibitors, or 0.05% DMSO as a control for the inhibitors that were soluble in DMSO. Each experiment consisted of two control groups and two or three replicate groups of cells treated with one of the inhibitors. The cells were incubated at 37°C for 20 minutes, following which media containing the inhibitor was removed, cells were washed with DPBS, detached from the plate by scraping into DPBS (without trypsin), and centrifuged at 800×g for 5 min. The wash buffer was supplemented with the appropriate inhibitor at the same concentration as used for the treatment, thereby ensuring that the changes induced in peptide levels were not reversed during harvesting of cells due to possible dissociation of the reversible inhibitors. The wash time (including centrifugation) was 15 minutes, for a total treatment time of 35 minutes. After centrifugation, the cell pellet was resuspended in 1 ml of 80°C water and incubated in an 80°C water bath for 20 minutes to inactivate proteases. The mixture was again centrifuged (13,000×g, 30 min, 4°C) and was stored at −80°C overnight. For peptide extraction, the samples were thawed and centrifuged again. The lysate was subsequently cooled on ice and acidified with HCl to a final concentration of 10 mM. After 15 min incubation on ice, the lysate was centrifuged at 13,000×g for 30 min at 4°C. To the supernatant, 250 µL of dibasic sodium phosphate (0.4 M, pH 9.5) was added and the mixture was stored at −80°C until labeling.
The labeling protocol has been earlier described in detail. Each group within an experiment (control/treated) was labeled with a different isotopic tag. The TMAB-NHS labels were dissolved in DMSO to a concentration of 400 µg/µL and 15 mg of label was used per 150 mm plate of cells. […] At the beginning, the pH of the peptide extract was adjusted to 9.5 with 1 M NaOH. Labeling was performed over 8 rounds; 4.69 µL of the label was added to the extract every 20 min. The pH was measured between each round and if necessary, brought back to 9.5 for the first five rounds. For rounds 6–8, the pH was not adjusted after the addition of the TMAB-NHS reagent. After the final round of label addition, the pH was adjusted to 9.5 again and the extracts were incubated at room temperature for 90 min. Thereafter, 30 µL of 2.5 M glycine was added to quench any unreacted label. Following 40 min incubation at room temperature, the labeled extracts for a single experiment were pooled and filtered through Amicon Ultracel-10 K units. It is important to ensure that only N-terminal amines and lysine side-chain amines of peptides are TMAB-labeled and not tyrosines. To hydrolyze any labeled tyrosine, 30 µL of a 2 M solution of hydroxylamine hydrochloride (pH 3.7) was added over three rounds to the pooled and filtered sample. The pH was measured after the addition of hydroxylamine and adjusted to 9.0 with 1 M NaOH. The samples were desalted through PepClean C-18 spin columns (Thermo Scientific, Rockford, IL, USA) by following manufacturer’s instructions. Peptides were eluted using 160 µL of 0.5% TFA and 70% acetonitrile, frozen at −80°C and then lyophilized in a vacuum centrifuge and stored at −80°C until analysis by mass spectrometry.
The LC-MS/MS experiments were performed on a Synapt G2 mass spectrometer coupled to a NanoAcquity capillary liquid chromatography system (Waters Co., Milford, MA, USA).

Compound	change in levels of intracellular peptides (peptidome) (HEK293T cells, 35 min, 2.5 µM MG132, 1 µM other inhibitors)	Relative Levels of peptide AKADGIVSKNF (RPS21) (1 uM, 35', HEK)	Relative Levels of peptide Ac-ASKRALVIL (PARK7) (1 uM, 35', HEK)	Relative Levels of peptide Ac-ASKRALVILA (PARK7) (1 uM, 35', HEK)	Relative Levels of peptide Ac-MDTSRVQPIKL (RPS28) (1 uM, 35', HEK)	Relative Levels of peptide Ac-MDTSRVQPIKLAR (RPS28) (1 uM, 35', HEK)	Relative Levels of peptide Ac-SSEEGKLFVGGLNF (RBM3) (1 uM, 35', HEK)	Relative Levels of peptide Ac-SYGRPPPDVEGMTSLKVDNL (SRSF2) (1 uM, 35', HEK)	Relative Levels of peptide GAIRDIDL (SRSF1) (1 uM, 35', HEK)	Relative Levels of peptide GFGDLKSPAGLQVL (EEF1B2) (1 uM, 35', HEK)	Relative Levels of peptide GVQVETISPGDGRTFPKRGQT (FKBP1A) (1 uM, 35', HEK)	Relative Levels of peptide KHTGPGILSM (PPIA) (1 uM, 35', HEK)
CC(C)C[C@@H](C=O)NC(=O)[C@H](CC(C)C)NC(=O)[C@H](CC(C)C)NC(=O)OCc1ccccc1 [MG132, reference compound] (Cbz-Leu-Leu-Leu-aldehyde)	the majority of peptides was greatly decreased											
CC(=O)N[C@@H](CSC(=O)[C@]1([C@@H](O)C(C)C)NC(=O)[C@H](C)[C@@H]1O)C(=O)O [Lactacys]		0.16 and 0.15	< 0.20 and 0.26	0.29 and 0.31	0.31 and 0.28	0.52 and 0.70	0.39 and 0.30	0.40 and 0.50	< 0.20	0.19 and 0.14	0.31 and 0.26	0.25 and 0.22
